{
  "source": "patent US20110104055A1",
  "about": "“SUBSTITUTED N-ARYL BENZAMIDES AND RELATED COMPOUNDS FOR TREATMENT OF AMYLOID DISEASES AND SYNUCLEINOPATHIES” (priority 2002, published 2011)",
  "type_in_all_cases": "biochemical",
  "key": {"Aβ 1-42 fibrils [1]": {"biological_target": "T1, Aβ 1-42 fibrils (Homo sapiens, UniProt P05067)", "T1 construct": "purchased Bachem Inc", "T1 sequence (P05067 672-713)": "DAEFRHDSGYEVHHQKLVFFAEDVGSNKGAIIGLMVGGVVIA", "assay": "Congo red binding assay, Aβ 1-42 fibrils (Example 11)", "settings": "3-day incubation", "experimental": "(§1) In the Congo red binding assay, the ability of a test compound to alter amyloid (in this case, Aβ) binding to Congo red is quantified. In this assay, Aβ 1-42 and test compounds were incubated for 3 days and then vacuum filtered through a 0.2 μm filter. The amount of Aβ 1-42 retained in the filter was then quantitated following staining of the filter with Congo red. After appropriate washing of the filter, any lowering of the Congo red color on the filter in the presence of the test compound (compared to the Congo red staining of the amyloid protein in the absence of the test compound) was indicative of the test compound's ability to diminish/alter the amount of aggregated and congophilic Aβ.\nIn one study, the ability of Aβ fibrils to bind Congo red in the absence or presence of increasing amounts of the compounds or EDTA (at Aβ:test compound weight ratios of 1:1, 1:0.1, 1:0.01 or 1:0.001) was determined."}, "Aβ 1-42": {"biological_target": "T2, Aβ 1-42 (Homo sapiens, UniProt P05067)", "T2 construct": "25 μM of pre-fibrillized Aβ 1-42 (Bachem Inc) was incubated at 37° C; purchased Bachem Inc", "T2 sequence (P05067 672-713)": "as above", "assay": "SDS-PAGE/Western blot of Aβ 1-42 after incubation with compounds", "settings": "25 μM pre-fibrillized Aβ 1-42, 37° C., 3 days, filtrate of 0.2 μm filter, 6E10 antibody", "description": "In this latter study, triplicate samples of pre-fibiillized Aβ 1-42 (25 μM) was incubated at 37° C. for 3 days, alone or in the presence of the compounds or EDTA. Five micrograms of each sample was then filtered through a 0.2 μm filter. Protein recovered from the filtrate was then loaded, and ran on a 10-20% Tris-Tricine SDS-PAGE, blotted to nitrocellulose and detected using an Aβ-antibody (clone 6E10; Senetek)."}, "Aβ 1-42 fibrils [2]": {"biological_target": "T1, Aβ 1-42 fibrils", "assay": "Thioflavin T fluorometry, disruption of pre-formed Aβ 1-42 fibrils (Example 11)", "settings": "3 days; for % Inhibition Aβ (result ± S.D.), Thioflavin T fluorometry: 30 μg pre-fibrillized Aβ 1-42, 37° C.", "text": "(§2) In one study, Thioflavin T fluorometry was used to determine the effects of the compounds, and of EDTA (as a negative control). In this assay Thioflavin T binds specifically to fibrillar amyloid, and this binding produces a fluorescence enhancement at 485 nm that is directly proportional to the amount of amyloid fibrils formed. The higher the fluorescence, the greater the amount of amyloid fibrils formed (Naki et al., Lab. Invest. 65:104-110, 1991; Levine III, Protein Sci. 2:404-410, 1993; Amyloid: Int. J. Exp. Clin. Invest. 2:1-6, 1995).\nFollowing 3-days of co-incubation, 50 μl of each incubation mixture was transferred into a 96-well microtiter plate containing 150 μl of distilled water and 50 μl of a Thioflavin T solution (i.e. 500 mM Thioflavin T in 250 mM phosphate buffer, pH 6.8). The fluorescence was read at 485 nm (444 nm excitation wavelength) using an ELISA plate fluorometer after subtraction with buffer alone or compound alone, as blank."}, "Aβ 1-42 fibrils [3]": {"biological_target": "T1, Aβ 1-42 fibrils", "assay": "Thioflavin T fluorometry, disruption of pre-formed Aβ 1-42 fibrils (Example 6)", "settings": "3 days; for % inhibition of Aβ (Thioflavin T fluorometry): 25 μM pre-fibrillized Aβ 1-42, 37° C.", "experimental": "The biological activity of the compounds provided herein as disruptors/inhibitors of Alzheimer's disease β-amyloid protein (Aβ) fibrils, type 2 diabetes IAPP fibrils and Parkinson's disease NAC fibrils was assessed by determining the efficacy of the compounds to cause a disassembly/disruption of pre-formed amyloid fibrils of Alzheimer's disease (i.e. consisting of Aβ 1-42 fibrils), IAPP fibrils and Parkinson's disease NAC fibrils. In one study, Thioflavin T fluorometry was used to determine the effects of the compounds, and of EDTA (as a negative control). In this assay Thioflavin T binds specifically to fibrillar amyloid, and this binding produces a fluorescence enhancement at 485 nm that is directly proportional to the amount of fibrils present. The higher the fluorescence, the greater the amount of fibrils present (Naki et al, Lab. Invest. 65:104-110, 1991; Levine III, Protein Sci. 2:404-410, 1993; Amyloid: Int. J. Exp. Clin. Invest. 2:1-6, 1995). The disruption of Aβ 1-42, even in its monomeric form, was confirmed by a study involving the use of SDS-PAGE and Western blotting methods.\nas §2\nFollowing 3 days of co-incubation, 50 μl of each incubation mixture was transferred into a 96-well microtiter plate containing 150 μl of distilled water and 50 μl of a Thioflavin T solution (i.e. 500 mM Thioflavin T in 250 mM phosphate buffer, pH 6.8). The fluorescence was read at 485 nm (444 nm excitation wavelength) using an ELISA plate fluorometer after subtraction with buffer alone or compound alone, as blank)."}, "IAPP fibrils": {"biological_target": "T3, IAPP fibrils (Homo sapiens, UniProt P10997)", "T3 construct": "purchased Bachem Inc", "T3 sequence (P10997 34-70 limits assumed)": "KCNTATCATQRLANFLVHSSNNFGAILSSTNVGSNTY", "assay": "Congo red binding assay, IAPP fibrils", "settings": "3-day incubation", "experimental": "In the Congo red binding assay the ability of a given test compound to alter amyloid (Aβ 1-42 fibrils, IAPP fibrils or NAC fibrils) binding to Congo red was quantified. In this assay, Aβ 1-42 fibrils, IAPP fibril or NAC fibrils and test compounds were incubated for 3 days and then vacuum filtered through a 0.2 μm filter. The amount of Aβ 1-42 fibrils, IAPP fibrils or NAC fibrils retained in the filter was then quantitated following staining of the filter with Congo red. After appropriate washing of the filter, any lowering of the Congo red color on the filter in the presence of the test compound (compared to the Congo red staining of the amyloid protein in the absence of the test compound) was indicative of the test compound's ability to diminish/alter the amount of aggregated and congophilic Aβ 1-42 fibrils, IAPP fibrils or NAC fibrils.\nas §1, with “binding assay” for “binding assay,”, “case, IAPP)” for “case, Aβ)”, “assay, IAPP” for “assay, Aβ 1-42”, “of IAPP” for “of Aβ 1-42”, “then quantified” for “then quantitated”, “congophilic IAPP.” for “congophilic Aβ.”\nIn one study, the ability of IAPP fibrils to bind Congo red in the absence or presence of increasing amounts of the compounds or EDTA (at IAPP:test compound weight ratios of 1:0.001, 1:0.01, 1:0.1 and 1:1) was determined."}, "[4]": {"settings": "Aβ:test compound wt/wt ratio 1:0.001"}, "[5]": {"settings": "Aβ:test compound wt/wt ratio 1:0.01"}, "[6]": {"settings": "Aβ:test compound wt/wt ratio 1:0.1"}, "[7]": {"settings": "Aβ:test compound wt/wt ratio 1:1"}, "[8]": {"settings": "Thioflavin T fluorometry, all concentrations tested"}},
  "data": [
    {"smiles": "O=C(O)CN(CCN(CC(=O)O)CC(=O)O)CC(=O)O", "note": "[EDTA]", "values": [
      {"measurement": "% Inhibition Aβ (result ± S.D.), Congo red binding", "setting": "Aβ 1-42 fibrils [1]; [4]", "result": "1.2 ± 7.95", "unit": "%"},
      {"measurement": "% Inhibition Aβ (result ± S.D.), Congo red binding", "setting": "Aβ 1-42 fibrils [1]; [5]", "result": "8.4 ± 4.00", "unit": "%"},
      {"measurement": "% Inhibition Aβ (result ± S.D.), Congo red binding", "setting": "Aβ 1-42 fibrils [1]; [6]", "result": "0.0 ± 6.83", "unit": "%"},
      {"measurement": "% Inhibition Aβ (result ± S.D.), Congo red binding", "setting": "Aβ 1-42 fibrils [1]; [7]", "result": "8.4 ± 2.74", "unit": "%"},
      {"measurement": "inhibition of Aβ 1-42 fibril binding to Congo red, in words", "setting": "Aβ 1-42 fibrils [1]; all concentrations tested", "result": "no significant inhibition"},
      {"measurement": "detection of Aβ 1-42 monomers (~4 kilodalton band) after incubation", "setting": "Aβ 1-42", "result": "detected as a ˜4 kilodalton band"},
      {"measurement": "% Inhibition Aβ (result ± S.D.), Thioflavin T fluorometry", "setting": "Aβ 1-42 fibrils [2]; [4]", "result": "0.0 ± 1.70", "unit": "%"},
      {"measurement": "% Inhibition Aβ (result ± S.D.), Thioflavin T fluorometry", "setting": "Aβ 1-42 fibrils [2]; [5]", "result": "2.4 ± 2.86", "unit": "%"},
      {"measurement": "% Inhibition Aβ (result ± S.D.), Thioflavin T fluorometry", "setting": "Aβ 1-42 fibrils [2]; [6]", "result": "0.0 ± 6.02", "unit": "%"},
      {"measurement": "% Inhibition Aβ (result ± S.D.), Thioflavin T fluorometry", "setting": "Aβ 1-42 fibrils [2]; [7]", "result": "0.0 ± 3.46", "unit": "%"},
      {"measurement": "disruption/disassembly of preformed Aβ 1-42 fibrils, in words", "setting": "Aβ 1-42 fibrils [2]; [8]", "result": "no significant inhibition"},
      {"measurement": "% inhibition of Aβ (Thioflavin T fluorometry)", "setting": "Aβ 1-42 fibrils [3]; [5]", "result": "0.2 ± 3.03", "unit": "%"},
      {"measurement": "% inhibition of Aβ (Thioflavin T fluorometry)", "setting": "Aβ 1-42 fibrils [3]; [7]", "result": "0.0 ± 3.59", "unit": "%"},
      {"measurement": "disruption/disassembly of preformed Aβ 1-42 fibrils, in words", "setting": "Aβ 1-42 fibrils [3]; [8]", "result": "no significant inhibition/disruption"},
      {"measurement": "inhibition of IAPP fibril binding to Congo red, in words", "setting": "IAPP fibrils", "result": "no significant inhibition"},
      {"measurement": "% inhibition of IAPP (Congo red binding)", "setting": "IAPP fibrils; IAPP:test compound wt/wt ratio 1:0.001", "result": "0.0 ± 1.82", "unit": "%"},
      {"measurement": "% inhibition of IAPP (Congo red binding)", "setting": "IAPP fibrils; IAPP:test compound wt/wt ratio 1:0.01", "result": "0.0 +/− 1.65%"},
      {"measurement": "% inhibition of IAPP (Congo red binding)", "setting": "IAPP fibrils; IAPP:test compound wt/wt ratio 1:0.1", "result": "0.0 +/− 2.40%"},
      {"measurement": "% inhibition of IAPP (Congo red binding)", "setting": "IAPP fibrils; IAPP:test compound wt/wt ratio 1:1", "result": "13.9 +/− 4.71%"}
    ]}
  ]
}
